Results published in US5192784A, “Etanidazole injectable solution” (Du Pont Merck Pharmaceutical Company, priority 1992, dated 1993).

How the values were obtained:
[1] = Effect of autoclaving on crystal formation at 4° C. over 43 days, pH 3.0, 3.5 and 4.0; type: physicochemical; settings: for samples that developed crystals: 50 mg/ml
Protocol: Further studies were done in which etanidazole (50 mg/ml) solutions at pH 3.0, 3.5, and 4.0 were prepared and the effect of autoclaving was evaluated. At pH 3.0, 0 of 48 autoclaved samples and 0 of 48 non-autoclaved samples developed crystals when stored at 4° C. over 43 days. At pH 3.5, 0 of 49 autoclaved samples developed crystals, and 3 of 50 non-autoclaved samples developed crystals when stored at 4° C. over 43 days. At pH 4.0, 0 of 50 autoclaved samples developed crystals when stored at 4° C. for 43 days, but 1 of 50 non-autoclaved samples developed crystals.

[2] = Effects of additives on apparent solubility / crystallization of etanidazole solutions; type: physicochemical; settings: for time to formation of crystalline material: excess or 150 mg/ml
Protocol: The effects of additives on the apparent solubility of etanidazole were evaluated. […] Possible effects of additives are to inhibit the crystallization of etanidazole hydrate and to solubilize etanidazole hydrate.
Solutions were mixed by rotating end-to-end for 72 hours at room temperature. […] These were placed in 4° C. storage. […] In the case of solutions containing 1% ethanolamine or 0.1% diethanolamine as additives and excess or 150 mg/ml etanidazole, crystalline material had found within 24 hours at room temperature, but the 50 mg/ml and 100 mg/ml solutions remained clear at room temperature for 72 hours. These samples were placed at 4° C. […] After 2 months at 4° C., 1 of the 3 vials remained free of crystals. The 50 mg/ml etanidazole solution with 0.1% diethanolamine remained clear for at least 2 months at 4° C.

O=C(Cn1ccnc1[N+](=O)[O-])NCCO [Etanidazole]
samples that developed crystals ([1]; pH 3.0, autoclaved, 4° C. over 43 days): 0 of 48
samples that developed crystals ([1]; pH 3.0, non-autoclaved, 4° C. over 43 days): 0 of 48
samples that developed crystals ([1]; pH 3.5, autoclaved, 4° C. over 43 days): 0 of 49
samples that developed crystals ([1]; pH 3.5, non-autoclaved, 4° C. over 43 days): 3 of 50
samples that developed crystals ([1]; pH 4.0, autoclaved, 4° C. for 43 days): 0 of 50
samples that developed crystals ([1]; pH 4.0, non-autoclaved, 4° C., 43 days): 1 of 50
effect of autoclaving on crystal formation ([1]; subsequent storage at 4° C.): autoclaving prevents the formation of crystals
time solution remained clear ([2]; 0.1% diethanolamine, 50 mg/ml, 4° C.): at least 2 months
time solution remained clear ([2]; 0.1% diethanolamine, 50 mg/ml, room temperature): 72 h
vials that remained free of crystals ([2]; 0.1% diethanolamine, 100 mg/ml, 4° C., after 2 months): 1 of the 3
vials showing crystallization ([2]; 0.1% diethanolamine, 100 mg/ml, 4° C., within 24 hours): 1 of 3
time solution remained clear ([2]; 0.1% diethanolamine, 100 mg/ml, room temperature): 72 h
time to formation of crystalline material ([2]; 0.1% diethanolamine, room temperature): ≤ 24 h
time solution remained clear ([2]; 1% ethanolamine, 50 mg/ml, 4° C.): at least 1 month
time solution remained clear ([2]; 1% ethanolamine, 50 mg/ml, room temperature): 72 h
time to crystallization ([2]; 1% ethanolamine, 100 mg/ml, 4° C.): ≤ 24 h
time solution remained clear ([2]; 1% ethanolamine, 100 mg/ml, room temperature): 72 h
time to formation of crystalline material ([2]; 1% ethanolamine, room temperature): ≤ 24 h
solid form of excess solid ([2]; 1% imidazole and excess etanidazole, 72 hours, room temperature): appeared to have been converted to etanidazole hydrate
time solution remained clear ([2]; 1% imidazole, 50 mg/ml, 4° C. (up to)): up to 1 month
time solution remained clear ([2]; 1% imidazole, 100 mg/ml, 4° C. (up to)): up to 1 month
time to crystal formation ([2]; 1% imidazole, 150 mg/ml, 4° C.): ≤ 2 h
appearance of solution ([2]; 1% imidazole, up to 150 mg/ml etanidazole, room temperature, 72 hours): remained clear and free of particulates
effect of additives on etanidazole solutions ([2]; imidazole, ethanolamine, diethanolamine, room temperature or 4° C.): these additives stabilize etanidazole solutions, inhibiting crystal formation
